From patent publication EP0435693B1, “Pharmaceutical compositions containing 3-oxygermylpropionic acid polymers for inhibiting the degeneration of cells” (SANWA KAGAKU KENKYUSHO CO., LTD., priority 1989, dated 1991)

What was measured:
Format in all cases: in vivo
[1] = system: MRL/1 masculine mice; assay: Prevention of spontaneous nephritis of MRL/1 mice; set-up: Blood-urinary nitrogen levels, BUN: unit not given here; conditions: for Blood-urinary nitrogen levels, BUN: day following the final administration
Method: The action of SK-818 on preventing the development of spontaneous nephritis of MRL/1 mice (or an impairment of the functioning of the kidney asaociated with aging) was examined.
Given amounts (0.1 mg/kg, 1.0 mg/kg and 10.0 mg/kg a day) of SK-818, in the form of a mixture of the composition of Preparation Ex. 1 with feed, were administered orally MRL/1 masculine mice of six-week age (16 for each group) twice a week over 12 weeks. In the meantime, urinary protein was measured once a week; urinary protein levels exceeding 100 mg/dl were taken as positive. Examination was then made of how many animals became positive at the respective week-ages. Moreover, blood-urinary nitrogen levels were determined on the day following the final administration to make serological/physiological and pathological estimations of the action of SK-818 on nephritis.
The urinary protein and blood-urinary nitrogen levels were measured with Protein Pre-test (made by Wako Junyaku K.K.) and Urinary Nitrogen B-Test according to the urease/indophenol method (made by Wako Junyaku K.K.), respectively.

[2] = system: ddy masculine mouse; assay: Amnesia induced by carbon dioxide, passive avoidance in bright/dark box; conditions: Group B: SK-818 + Foot Shocks + CO₂ Gas, 10.0 mg/kg/day orally from 3 days before
Method: A ddy masculine mouse was encaged in a […] of a testing box (comprising bright and dark chambers, each measuring 15.0 x 17.5 x 18.5 cm and provided with an inlet/outlet combination of 6.0 x 6.0 cm, and the time which it took the animal to walk into the dark chamber (the reaction potential time during acquisition, hereinafter referred to as A.T.) was then measured. From just after the animal walked into the dark chamber, foot shocks of 2.5 mA were continuously applied to the animal through a floor grid with a shock generator scrambler, made by Astech Co., Ltd., until the animal walked into the bright chamber. Immediately after the acquisition trial, the animal was encaged in a desiccator, and 15 l/min of CO₂ gas were injected into the desiccator for 40 to 45 seconds for suffocation. After the animal was removed from the desiccator, artificial aspiration was immediately tried thereon. The animal was then put back in a home cage.
After 24 hours of the acquisition trial, the animal was again encaged in the bright chamber of the testing box to measure the time which it took the animal to walk into the dark chamber (or the reaction potential time during the retention trial, hereinafter referred to as R.T.). SK-818, in the form of a mixture with feed, had been administered orally to the animal from 3 days before at a dose of 10.0 mg/kg/day.

[3] = system: Wistar masculine rats; assay: Relief of nephrotoxicity of mercuric chloride
Method: The effect of SK-818 on the impairment of kidney-function by mercuric chloride was examined, using blood-urinary nitrogen levels as an index.
Mercuric chloride was subcutaneously administered to Wistar masculine rats (seven weeks of age) 6-10 per group, at a dose of 1.2 mg/kg. From 24 hours after the administration till the lapse of 96 hours, the animals were permitted to freely drink an aqueous solution containing 2,400 ppm of SK-818 (at an average dose of 231±14 mg/kg). […]

[4] = system: mice; assay: Acute toxicity test, per os, mice
From the text: (§1) With (a) the 3-oxygermylpropionic acid according to this invention (hereinafter called SK-818) and (b) the composition of Preparation Ex. 1, SD rats and mice were subjected to acute and subacute (chronic) toxicity tests in conventional manner. (Groups of animals, 8-10 per group, were used for experimentation).

[5] = system: SD rats; assay: Acute toxicity test, per os, rats
From the text: as §1

In the case of 3-oxygermylpropionic acid [SK-818], the “Number of animals with positive urinary protein levels” value (“Number of animals” for short) ([1]; 0.1 mg/kg, 16 week-age, positive = exceeding 100 mg/dl) is reported as 4/15, the “Number of animals” value ([1]; 0.1 mg/kg, 17 week-age) is reported as 7/15 and the “Number of animals” value ([1]; 0.1 mg/kg, 18 week-age) is reported as 10/15. For the same substance, the “Blood-urinary nitrogen levels, BUN” value ([1]; 0.1 mg/kg) was 32.2±1.6, the “Number of animals” value ([1]; 1 mg/kg, 16 week-age) was 4/15 and the “Number of animals” value ([1]; 1 mg/kg, 17 week-age) was 6/15. The “Number of animals” value ([1]; 1 mg/kg, 18 week-age) was 8/15, the “Blood-urinary nitrogen levels, BUN” value ([1]; 1 mg/kg) was 35.5±3.3 and the “Number of animals” value ([1]; 10 mg/kg, 16 week-age) was 2/15. The “Number of animals” value ([1]; 10 mg/kg, 17 week-age) was 4/15, the “Number of animals” value ([1]; 10 mg/kg, 18 week-age) was 8/15 and the “Blood-urinary nitrogen levels, BUN” value ([1]; 10 mg/kg) was 29.3±1.7. The “increase in the blood-urinary nitrogen levels” value ([1]; At 10 mg/kg) was “significantly inhibited”, the “increase in the urinary protein levels” value ([1]; At 10 mg/kg) was “remarkably inhibited” and the “glomeruli that become more morbid” value ([1]; groups medicated with SK-818, control group 57 %) was 23-34%. For the same substance, the “A.T. (reaction potential time during acquisition)” value [2] was 48.5 ± 9.1 s, the “R.T. (reaction potential time during the retention trial)” value ([2]; 24 hours after acquisition) was 276.5 ± 19.3 s and the Blood-urinary nitrogen ([3]; 0 hour, mercuric chloride 1.2 mg/kg s.c.) was 15.1 ± 0.4 mg/dL. For the same substance, the Blood-urinary nitrogen ([3]; 24 hours after mercuric chloride, drinking of 2400ppm aqueous solution starts at 24 hours) was 31.9 ± 1.3 mg/dL, the Blood-urinary nitrogen ([3]; 48 hours after mercuric chloride, 2400ppm aqueous solution) was 50.6 ± 9.8 mg/dL and the Blood-urinary nitrogen ([3]; 72 hours after mercuric chloride, 2400ppm aqueous solution) was 45.9 ± 13.8 mg/dL. The Blood-urinary nitrogen ([3]; 92 hours after mercuric chloride, 2400ppm aqueous solution) was 30.9 ± 9.4 mg/dL, the LD50 ([4]; female) was 5,800 or more mg/kg and the LD50 ([4]; male) was 5,600 or more mg/kg. The LD50 ([5]; female) was 7,050 or more mg/kg and the LD50 ([5]; male) was 7,700 or more mg/kg.
